US8034795B2, “Taxanes covalently bounded to hyaluronic acid or hyaluronic acid derivatives” (Fidia Farmaceutici S.p.A., priority 2002, dated 2011)

What was measured:
[1] = test system: human ovary adenocarcinoma cells, OVCAR-3 cells; assay: Survival of nude mice after intraperitoneal implant of OVCAR-3 neoplastic cells; assay type: in vivo, immunodepressed nude mice (Athymic CD-1); details: 3 intraperitoneal doses (days 6, 13, 20): 20 mg/kg Taxol or 125 mg/kg HYTAD; 5 animals per group
Text: For this experiment, we used human ovary adenocarcinoma cells, OVCAR-3 cells, in immunodepressed nude mice belonging to the Athymic CD-1 species.
Each mouse was inoculated by the intraperitoneal route with 5×10^6 cancer cells.
The molecular weight of the HA used for synthesis of this new drug was 200,000 Da (see Example 7 for details of its preparation). Five animals were used for this drug too.
Treated animals: 10 animals were first inoculated with OVCAR-3 cells.
The survival curve was calculated from the date of intervention to the 92nd day after inoculation of the cancer cells into the peritoneum.

[2] = intravenous infusion of paclitaxel-Cremophor EL in spite of pre-medication; cited from earlier work
[3] = test system: MCF-7 human breast cancer cell line; assay: In vitro cytotoxicity, MTT test, MCF-7; assay type: cell-based; details: MCF7, 72 h, read-out: IC50 (concentration of drug necessary to inhibit cell growth by 50%)
Experimental: (§1) Four cell lines of human breast cancer were used.
(§2) 1) the test cell line is plated at a concentration of 3,000 cells per well, on a flat-bottomed, 96-well plate;
(§3) 2) 24 hours later, the cells are supplemented with the test solutions suitably diluted in culture medium;
(§4) This is possible because mitochondrial dehydrogenase is able to reduce the tetrazolium salts (yellow) into blue formazan crystals. The greater or lesser intensity of colour is assessed by spectrophotometry (Dezinot, F. et al., J. Immunol. Methods, 1986, 22 (89): 271-277).

[4] = test system: MDA-MB-231 human breast cancer cell line; assay: In vitro cytotoxicity, MTT test, MDA-MB-231; assay type: cell-based; details: MDA-MB-231, 72 h, read-out: IC50 (concentration of drug necessary to inhibit cell growth by 50%)
Experimental: as §1, §2, §3, §4

[5] = test system: SKBR-3 human breast cancer cell line; assay: In vitro cytotoxicity, MTT test, SKBR-3; assay type: cell-based; details: SK-BR-3, 72 h, read-out: IC50 (concentration of drug necessary to inhibit cell growth by 50%)
Experimental: as §1, §2, §3, §4

Q: Which “animals that had died on the 92nd day after intervention” value [1] does the source give for `CC(=O)O[C@H]1C(=O)[C@@]2(C)[C@H]([C@H](OC(=O)c3ccccc3)[C@]3(O)C[C@H](OC(=O)[C@H](O)[C@@H](NC(=O)c4ccccc4)c4ccccc4)C(C)=C1C3(C)C)[C@]1(OC(C)=O)CO[C@@H]1C[C@@H]2O` [Taxol ®, paclitaxel] here?
A: Its value is “none”.

Q: What about the “patients who experience more or less severe adverse reactions” value [2] of the same compound?
A: The value was “up to 40%”.

Q: What about the IC50 [3] of the same compound?
A: Its IC50 is 3.5 nM.

Q: What about the IC50 [4] of the same compound?
A: The IC50 was 0.35 nM.

Q: What about the IC50 [5] of the same compound?
A: Its IC50 is 0.23 nM.
